Legend:
Format in all cases: in vivo
[1] = test system: redroot pigweed (Amaranthus retroflexus, AMARE); assay: Test A pre-emergence, redroot pigweed; conditions: after 13 d
Procedure, shortened: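 Damage rated visually at 13 d on a 0–100 scale (100 = plant killed). Pre-emergence spray one day after sowing; doses 15.625, 62.5 or 250 g/ha from an acetone/water 50:50 formulation with 0.5% Tween 20. Glasshouse at 24/16° C., 14 h photoperiod, 65% humidity.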

[2] = test system: velvetleaf (Abutilon theophrasti, ABUTH); assay: Test A post-emergence, velvetleaf; conditions: after 13 d
Procedure, shortened: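 Visual damage rating (0 no damage to 100 total damage) was made 13 d after spraying. The spray was 15.625, 62.5 or 250 g/ha in 50:50 acetone/water with 0.5% Tween 20, applied to 8-day-old glasshouse plants kept at 24/16° C, 14 h light and 65% humidity.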

[3] = test system: plants; assay: Test D post-emergence, other plants of Tables D2 and D4; conditions: "Cereals" Postemergent, evaluated after 15 d
Procedure: A formulation containing 50 g/L of the test chemical was prepared by dissolving the active ingredient in a mixture of organic solvents and emulsifier, details of which are provided in the table. This formulation was then mixed with a small, variable amount of acetone to aid dissolution, before addition of a 0.2% v/v aqueous solution of an adjuvant, as the aqueous diluent, to form an aqueous spray solution which contains a predetermined concentration of the active ingredient.
This aqueous spray solution was then sprayed onto plants including maize and wheat that had been seed treated with a herbicide safener, after one day's cultivation (for pre-emergence) or after about 12 days' cultivation (for post-emergence). The plants were grown from seeds sown in standard soil, placed in a glasshouse under controlled conditions (at 24/18° C. or 20/16° C., day/night; 16 h light; 65% humidity). After spray application the plants were then grown in a glasshouse under the same conditions and watered twice daily. After 15 d for post-emergence and 20 DAA for pre-emergence the test was evaluated (100=total damage to plant; 0=no damage to plant).

CN1CC(c2cc(C(F)(F)F)n(C)n2)C(C(=O)Nc2ccc(F)cc2C(C)(F)F)C1=O (racemic) [Compound 26]
0: damage to plant (100=total damage; 0=no damage) AMARE ([1]; Pre-Emergence at 62.5 g/ha) | damage to plant (100=total damage; 0=no damage) AMARE ([1]; Pre-Emergence at 250 g/ha) | damage to plant (100=total damage; 0=no damage) ABUTH ([2]; Post-Emergence at 62.5 g/ha) | damage to plant (100=total damage; 0=no damage) ABUTH ([2]; Post-Emergence at 250 g/ha) | ALOMY damage rating (100=total damage to plant; 0=no damage to plant) ([3]; Rates 130) | ALOMY damage rating (100=total damage to plant; 0=no damage to plant) ([3]; Rates 250) | AVEFA damage rating (100=total damage to plant; 0=no damage to plant) ([3]; Rates 130) | BEAVA damage rating (100=total damage to plant; 0=no damage to plant) ([3]; Rates 130) | BEAVA damage rating (100=total damage to plant; 0=no damage to plant) ([3]; Rates 250) | BEAVA damage rating (100=total damage to plant; 0=no damage to plant) ([3]; Rates 500) | BROTE damage rating (100=total damage to plant; 0=no damage to plant) ([3]; Rates 130) | BROTE damage rating (100=total damage to plant; 0=no damage to plant) ([3]; Rates 250) | BROTE damage rating (100=total damage to plant; 0=no damage to plant) ([3]; Rates 500) | BRSNN damage rating (100=total damage to plant; 0=no damage to plant) ([3]; Rates 130) | BRSNN damage rating (100=total damage to plant; 0=no damage to plant) ([3]; Rates 250) | BRSNN damage rating (100=total damage to plant; 0=no damage to plant) ([3]; Rates 500) | CHEAL damage rating (100=total damage to plant; 0=no damage to plant) ([3]; Rates 130) | CHEAL damage rating (100=total damage to plant; 0=no damage to plant) ([3]; Rates 250) | GALAP damage rating (100=total damage to plant; 0=no damage to plant) ([3]; Rates 130) | GALAP damage rating (100=total damage to plant; 0=no damage to plant) ([3]; Rates 250) | HORVW damage rating (100=total damage to plant; 0=no damage to plant) ([3]; Rates 130) | HORVW damage rating (100=total damage to plant; 0=no damage to plant) ([3]; Rates 250) | KCHSC damage rating (100=total damage to plant; 0=no damage to plant) ([3]; Rates 130) | KCHSC damage rating (100=total damage to plant; 0=no damage to plant) ([3]; Rates 250) | KCHSC damage rating (100=total damage to plant; 0=no damage to plant) ([3]; Rates 500) | LOLPE damage rating (100=total damage to plant; 0=no damage to plant) ([3]; Rates 130) | LOLPE damage rating (100=total damage to plant; 0=no damage to plant) ([3]; Rates 250) | POLCO damage rating (100=total damage to plant; 0=no damage to plant) ([3]; Rates 130) | POLCO damage rating (100=total damage to plant; 0=no damage to plant) ([3]; Rates 250) | POLCO damage rating (100=total damage to plant; 0=no damage to plant) ([3]; Rates 500) | SINAR damage rating (100=total damage to plant; 0=no damage to plant) ([3]; Rates 130) | SINAR damage rating (100=total damage to plant; 0=no damage to plant) ([3]; Rates 250) | STEME damage rating (100=total damage to plant; 0=no damage to plant) ([3]; Rates 130) | STEME damage rating (100=total damage to plant; 0=no damage to plant) ([3]; Rates 250) | STEME damage rating (100=total damage to plant; 0=no damage to plant) ([3]; Rates 500) | VERPE damage rating (100=total damage to plant; 0=no damage to plant) ([3]; Rates 130) | VERPE damage rating (100=total damage to plant; 0=no damage to plant) ([3]; Rates 250)
60: AVEFA damage rating (100=total damage to plant; 0=no damage to plant) ([3]; Rates 500) | GALAP damage rating (100=total damage to plant; 0=no damage to plant) ([3]; Rates 500) | LOLPE damage rating (100=total damage to plant; 0=no damage to plant) ([3]; Rates 500)
30: POAAN damage rating (100=total damage to plant; 0=no damage to plant) ([3]; Rates 130)
20: POAAN damage rating (100=total damage to plant; 0=no damage to plant) ([3]; Rates 250)
10: AVEFA damage rating (100=total damage to plant; 0=no damage to plant) ([3]; Rates 250) | CHEAL damage rating (100=total damage to plant; 0=no damage to plant) ([3]; Rates 500) | SINAR damage rating (100=total damage to plant; 0=no damage to plant) ([3]; Rates 500)
40: ALOMY damage rating (100=total damage to plant; 0=no damage to plant) ([3]; Rates 500) | HORVW damage rating (100=total damage to plant; 0=no damage to plant) ([3]; Rates 500)
80: POAAN damage rating (100=total damage to plant; 0=no damage to plant) ([3]; Rates 500) | VERPE damage rating (100=total damage to plant; 0=no damage to plant) ([3]; Rates 500)

— US20220281848A1, “PYRAZOLE-SUBSTITUTED PYRROLIDINONES AS HERBICIDES” (FMC Corporation, priority 2019, published 2022)
